Data reported in US20090068290A1, “BIFEPRUNOX DOSES FOR TREATING SCHIZOPHRENIA” (priority 2006, published 2009).

Legend:
[1] = tested on: adult subjects with schizophrenia; assay: PANSS total score, Clinical Study Two (6-week, risperidone-referenced); format: in vivo, human; settings: LOCF; for Change from Baseline in PANSS Total Score, Mean (SD) / Change from Baseline in PANSS Total Score, Median / PANSS Total Score, Trt Effect (difference between bifeprunox and placebo): ITT; for PANSS Total Score, Trt Effect (difference between bifeprunox and placebo): ANCOVA
Protocol: Treatment started with a single-blind placebo lead-in period of at least three days, followed by titration from 0.25 mg up to 30 mg/day or 40 mg/day of bifeprunox for bifeprunox-treated subjects.
Rating scale assessments were performed weekly, except for week 5, to measure the change from baseline to endpoint of the PANSS total score. Other assessments included: PANSS positive symptom subscale score, PANSS negative symptom subscale score, PANSS general pschopathology subscale score, BPRS total score, BPRS psychosis score, the CGI-S score, the CGI-I score, responder rates based on the PANSS total score, and the Calgary Depression Scale for Schizophrenia (CDSS).
Subjects who completed this study had the option to continue in the long-term. […] After completing a Single-Blind placebo lead-in period of at least three days, bifeprunox-treated subjects were titrated from 0.25 mg up to 30 mg/day or 40 mg/day according to a standardized titration scheme over an eight-day period. When the assigned dose was reached, subjects were maintained at that dose for the remainder of the six week treatment period. […] Rating scale assessments for efficacy and abnormal movement disorders were done weekly except for Week 5. Safety assessments were performed at Screening, during treatment and at the end of the study. Subject satisfaction with study medication was assessed at Week 6. Samples of blood were obtained at Weeks 2, 4, and 6 for determination of bifeprunox in plasma. Blood samples were also obtained at Screening/Baseline, Week 3, and Week 6 for clinical laboratory assessments.
Diagnosis and Main Criteria for Inclusion: Male or female subjects 18-75 years of age with schizophrenia (per DSM-IV-TR criteria). Subjects had to have a total score on the PANSS between 70 and 120; at least two of four PANSS items (conceptual disorganization, hallucinatory behavior, suspiciousness, unusual thought content) had to have a score ≧4; and the score on the CGI-S had to be at least 4.

[2] = tested on: adult subjects with schizophrenia; assay: CGI Improvement score, Clinical Study Two; format: in vivo, human; settings: LOCF
Protocol: Rating scale assessments were performed weekly, except for week 5, to measure the change from baseline to endpoint of the PANSS total score. Other assessments included: PANSS positive symptom subscale score, PANSS negative symptom subscale score, PANSS general pschopathology subscale score, BPRS total score, BPRS psychosis score, the CGI-S score, the CGI-I score, responder rates based on the PANSS total score, and the Calgary Depression Scale for Schizophrenia (CDSS). […]
Subjects who completed this study had the option to continue in the long-term. […] Risperidone-treated subjects were titrated from 2 mg to 6 mg daily over a three-day period and were subsequently maintained at 6 mg/day for the remainder of the treatment period. […] Blood samples were also obtained at Screening/Baseline, Week 3, and Week 6 for clinical laboratory assessments.

[3] = Bifeprunox 30 mg, Week 6/Endpoint
[4] = Bifeprunox 40 mg, Week 6/Endpoint

O=c1[nH]c2cccc(N3CCN(Cc4cccc(-c5ccccc5)c4)CC3)c2o1 [Bifeprunox, 7-[4-([1,1′-biphenyl]-3-ylmethyl)-1-piperazinyl]-2(3H)-benzoxazolone]
Change from Baseline in PANSS Total Score, Mean (SD) ([1]; Bifeprunox 30 mg, Week 1): −6.6 (11.8)
Change from Baseline in PANSS Total Score, Median ([1]; Bifeprunox 30 mg, Week 1): −5
Change from Baseline in PANSS Total Score, Mean (SD) ([1]; Bifeprunox 30 mg, Week 2): −11.6 (15.5)
Change from Baseline in PANSS Total Score, Median ([1]; Bifeprunox 30 mg, Week 2): −10
Change from Baseline in PANSS Total Score, Mean (SD) ([1]; Bifeprunox 30 mg, Week 3): −13.3 (17.8)
Change from Baseline in PANSS Total Score, Median ([1]; Bifeprunox 30 mg, Week 3): −10
Change from Baseline in PANSS Total Score, Mean (SD) ([1]; Bifeprunox 30 mg, Week 4): −13.6 (18.9)
Change from Baseline in PANSS Total Score, Median ([1]; Bifeprunox 30 mg, Week 4): −10
Change from Baseline in PANSS Total Score, Mean (SD) [1, 3]: −13.5 (20.1)
Change from Baseline in PANSS Total Score, Median [1, 3]: −10
PANSS Total Score, Trt Effect (difference between bifeprunox and placebo) [1, 3]: −5.9
Change from Baseline in PANSS Total Score, Mean (SD) ([1]; Bifeprunox 40 mg, Week 1): −6.7 (11.5)
Change from Baseline in PANSS Total Score, Median ([1]; Bifeprunox 40 mg, Week 1): −6
Change from Baseline in PANSS Total Score, Mean (SD) ([1]; Bifeprunox 40 mg, Week 2): −8.9 (15.6)
Change from Baseline in PANSS Total Score, Median ([1]; Bifeprunox 40 mg, Week 2): −8
Change from Baseline in PANSS Total Score, Mean (SD) ([1]; Bifeprunox 40 mg, Week 3): −10.0 (17.8)
Change from Baseline in PANSS Total Score, Median ([1]; Bifeprunox 40 mg, Week 3): −10
Change from Baseline in PANSS Total Score, Mean (SD) ([1]; Bifeprunox 40 mg, Week 4): −9.2 (18.8)
Change from Baseline in PANSS Total Score, Median ([1]; Bifeprunox 40 mg, Week 4): −7
Change from Baseline in PANSS Total Score, Mean (SD) [1, 4]: −10.3 (20.5)
Change from Baseline in PANSS Total Score, Median [1, 4]: −7
PANSS Total Score, Trt Effect (difference between bifeprunox and placebo) [1, 4]: −3.2
difference from placebo, change from Baseline to Endpoint in PANSS total score ([1]; bifeprunox 30 mg (b57 prints 20 mg)): statistically significant difference from placebo
greater improvement from Baseline to Endpoint in PANSS total score compared with placebo ([1]; bifeprunox 30 mg): 5.9 point
PANSS Total Score, treatment effect versus placebo ([1]; bifeprunox 30 mg, week 2): −5.6
PANSS Total Score, treatment effect versus placebo ([1]; bifeprunox 30 mg, week 4): −6.3
difference from placebo, change from Baseline to Endpoint in PANSS total score ([1]; bifeprunox 40 mg): not significantly different from the placebo group
CGI Improvement Minimally Improved, % ([2]; 30 mg, Week 2): (33%)
CGI Improvement Minimally Worse, % ([2]; 30 mg, Week 2): (8%)
CGI Improvement Much Improved, % ([2]; 30 mg, Week 2): (29%)
CGI Improvement Much Worse, % ([2]; 30 mg, Week 2): (3%)
CGI Improvement No Change, % ([2]; 30 mg, Week 2): (24%)
CGI Improvement Very Much Improved, % ([2]; 30 mg, Week 2): (3%)
CGI Improvement Very Much Worse, % ([2]; 30 mg, Week 2): (<1%)
CGI Improvement Minimally Improved, % ([2]; 30 mg, Week 3): (28%)
CGI Improvement Minimally Worse, % ([2]; 30 mg, Week 3): (7%)
CGI Improvement Much Improved, % ([2]; 30 mg, Week 3): (27%)
CGI Improvement Much Worse, % ([2]; 30 mg, Week 3): (4%)
CGI Improvement No Change, % ([2]; 30 mg, Week 3): (26%)
CGI Improvement Very Much Improved, % ([2]; 30 mg, Week 3): (6%)
CGI Improvement Very Much Worse, % ([2]; 30 mg, Week 3): (<1%)
CGI Improvement Minimally Improved, % ([2]; 30 mg, Week 4): (26%)
CGI Improvement Minimally Worse, % ([2]; 30 mg, Week 4): (9%)
CGI Improvement Much Improved, % ([2]; 30 mg, Week 4): (26%)
CGI Improvement Much Worse, % ([2]; 30 mg, Week 4): (4%)
CGI Improvement No Change, % ([2]; 30 mg, Week 4): (24%)
CGI Improvement Very Much Improved, % ([2]; 30 mg, Week 4): (9%)
CGI Improvement Very Much Worse, % ([2]; 30 mg, Week 4): (<1%)
CGI Improvement Minimally Improved, % ([2]; 30 mg, Week 6/Endpoint): (21%)
CGI Improvement Minimally Worse, % ([2]; 30 mg, Week 6/Endpoint): (11%)
CGI Improvement Much Improved, % ([2]; 30 mg, Week 6/Endpoint): (28%)
CGI Improvement Much Worse, % ([2]; 30 mg, Week 6/Endpoint): (6%)
CGI Improvement No Change, % ([2]; 30 mg, Week 6/Endpoint): (24%)
CGI Improvement Very Much Improved, % ([2]; 30 mg, Week 6/Endpoint): (9%)
CGI Improvement Very Much Worse, % ([2]; 30 mg, Week 6/Endpoint): (<1%)
CGI Improvement Minimally Improved, % ([2]; 40 mg, Week 2): (37%)
CGI Improvement Minimally Worse, % ([2]; 40 mg, Week 2): (7%)
CGI Improvement Much Improved, % ([2]; 40 mg, Week 2): (19%)
CGI Improvement Much Worse, % ([2]; 40 mg, Week 2): (11%)
CGI Improvement No Change, % ([2]; 40 mg, Week 2): (22%)
CGI Improvement Very Much Improved, % ([2]; 40 mg, Week 2): (4%.)
CGI Improvement Minimally Improved, % ([2]; 40 mg, Week 3): (30%)
CGI Improvement Minimally Worse, % ([2]; 40 mg, Week 3): (6%)
CGI Improvement Much Improved, % ([2]; 40 mg, Week 3): (21%)
CGI Improvement Much Worse, % ([2]; 40 mg, Week 3): (14%)
CGI Improvement No Change, % ([2]; 40 mg, Week 3): (23%)
